Assay: The binding affinity on delta-opioid receptor using [3H]- DPDPE as radioligand

Compound	Ki [µM]
N=C(N)NCCN1CC[C@]23c4c5ccc(O)c4O[C@H]2c2[nH]c4c(c2C[C@@]3(O)[C@H]1C5)C[C@@]1(O)[C@H]2Cc3ccc(O)c5c3C1(CCN2CC1CC1)[C@H]4O5 [17-(cyclopropylmethyl)-17'-(2-guanidinoethyl-6,6',7,7'-tetradehydro-4,5:4',5'-diepoxy-6,6'-imino-7,7'-bimorphinan-3,3',14,14'-tetrol]	0.037
NCCN1CC[C@]23c4c5ccc(O)c4O[C@H]2c2[nH]c4c(c2C[C@@]3(O)[C@H]1C5)C[C@@]1(O)[C@H]2Cc3ccc(O)c5c3[C@@]1(CCN2CC1CC1)[C@H]4O5 [17-(cyclopropylmethyl)-17'-aminoethyl-6,6',7,7'-tetradehydro-4,5:4',5'-diepoxy-6,6'-imino-7,7'-bimorphinan-3,3',14,14'-tetrol]	0.137
CCCCN1CC[C@]23c4c5ccc(O)c4O[C@H]2c2[nH]c4c(c2C[C@@]3(O)[C@H]1C5)C[C@@]1(O)[C@H]2Cc3ccc(O)c5c3[C@@]1(CCN2CC1CC1)[C@H]4O5 [17-(cyclopropylmethyl)-17'-butyl-6,6',7,7'-tetradehydro-4,5:4',5'-diepoxy-6,6'-imino-7,7'-bimorphinan-3,3',14,14'-tetrol]	0.015

Source: BindingDB's records for doi:10.1021/jm00036a015 (University of Minnesota, 1994)
